Measured values taken from US9375005B2, “5-halogenopyrazole indanyl carboxamides” (BAYER CROPSCIENCE AG, priority 2012, dated 2016).
Marks after values point to notes of the source that are not given here.

How the values were obtained:
[1] = Measurement of log P values by HPLC on reversed phase columns (EEC directive 79/831 Annex V.A8); type: physicochemical
Puccinia recondita = experiment: In vivo preventive test on Puccinia recondita (brown rust on wheat); settings: wheat plants sprayed 24 h before contamination, grading 12 days after contamination
Description: Plants, used as controls, are treated with the mixture of acetone/tween/DMSO/water not containing the active material. After 24 hours, the plants are contaminated by spraying the leaves with an aqueous suspension of Puccinia recondita spores (100 000 spores per ml). […] Grading (% of efficacy) is carried out 12 days after the contamination, in comparison with the control plants.

Uromyces appendiculatus = experiment: In vivo preventive test on Uromyces appendiculatus (bean rust); settings: bean plants sprayed 24 h before contamination, grading 11 days after contamination
Description: Bean plants (“Saxa” variety), sown in starter cups on a 50/50 peat soil-pozzolana substrate and grown at 24° C., are treated at the 2-leaf stage (9 cm height) by spraying with the active ingredient prepared as described above. Plants, used as controls, are treated with the mixture of acetone/tween/DMSO/water not containing the active material. After 24 hours, the plants are contaminated by spraying the leaves with an aqueous suspension of Uromyces appendiculatus spores (150 000 spores per ml). […] Grading (% of efficacy) is carried out 11 days after the contamination, in comparison with the control plants.

[2] = method [a]: LC-MS at pH 2.7, 0.1% formic acid in water / acetonitrile, gradient 10% to 95% acetonitrile
[3] = method [b]: LC-MS at pH 7.8, 0.001 molar ammonium hydrogen carbonate in water, gradient 10% to 95% acetonitrile

Row | SMILES | logP [1, 2] | other results
1 | CCON=C1CCc2c(Br)cccc21 (single isomer, unassigned) [III-b-10] | 4.49[a] | 
2 | CC1CC2(CC2)c2cccc(N)c21 (racemic) [III-a-25] | 1.93[a] | 
3 | Cn1nc(C(F)F)c(C(=O)Nc2cccc3c2CC2CCCCC32)c1Cl (stereo not shown) [Example 54] |  | logP ([1]; method marked [a]): 4.54[a]; Eff. % (Puccinia recondita; dose 500 ppm): 94%; Eff. % (Uromyces appendiculatus; dose 500 ppm): 100%
4 | CC1c2c(NC(=O)c3c(C(F)F)nn(C)c3Br)cccc2C(C)(C)C1C (stereo not shown) [Example 65] |  | logP ([1]; method marked [a]): 4.23[a]; Eff. % (Puccinia recondita; dose 500 ppm): 94%; Eff. % (Uromyces appendiculatus; dose 500 ppm): 95%
5 | CON=C1c2cccc(N)c2CC1(C)C.Cl [III-a-32] | 2.08[a] | 
6 | CCCON=C1CCc2c(Br)cccc21 (single isomer, unassigned) [III-b-22] | 5.56[a] | 
7 | CC(C)C1Cc2cccc(N)c2C1 (stereo not shown) [III-a-2] | 2.25[a] | 
8 | CC1CC(C)(C)c2c(Br)ccc(N)c21 (stereo not shown) [III-a-20] | 3.85[a]; | logP [1, 3]: 3.95[b]
9 | Brc1cccc2c1CCC21CC1 [III-b-4] | 4.86[a] | 
10 | CC(C)CC1CC(C)c2c(N)cccc21 (stereo not shown) [III-a-39] | 3.42[a] | 
11 | CC1CC(C)(C)c2c(Cl)ccc(N)c21 (stereo not shown) [III-a-5] | 3.68[a] | 
12 | CC1Cc2c(N)cccc2C1C (stereo not shown) [III-a-33] | 1.44[a] | 
13 | CON=C1CCc2c(NC(=O)c3c(C(F)F)nn(C)c3F)cccc21 [Example 29] |  | logP ([1]; method marked [a]): 2.59[a]; Eff. % (Puccinia recondita; dose 500 ppm): 98%
14 | CC(C)C1Cc2c(NC(=S)c3c(C(F)F)nn(C)c3Cl)cccc2C1(C)C (stereo not shown) [Example 94, 5-chloro-3-(difluoromethyl)-N-(2-isopropyl-1,1-dimethyl-2,3-dihydro-1H-inden-4-yl)-1-methyl-1H-pyrazole-4-carbothioamide] |  | logP ([1]; pH 2.7): 4.92[a]; Eff. % (Puccinia recondita; dose 500 ppm): 89%; Eff. % (Uromyces appendiculatus; dose 500 ppm): 99%
15 | CCCON=C1CCc2c(Br)cccc21 (single isomer, unassigned) [III-b-7] | 5.14[a] | 
16 | CC1CC(C)(C)c2c(Br)ccc(NC(=O)c3c(C(F)F)nn(C)c3F)c21 (stereo not shown) [Example 38] |  | logP ([1]; method marked [a]): 4.45[a];; logP ([1]; method marked [b]): 4.35[b]; Eff. % (Puccinia recondita; dose 500 ppm): 71%
17 | CON=C1CCc2c(Br)cccc21 [III-b-24] | 4.23[a] | 
18 | CC1CCc2c(NC(=O)c3c(C(F)F)nn(C)c3Cl)cccc21 (stereo not shown) [Example 109] |  | logP ([1]; method marked [a]): 3.52[a]; Eff. % (Puccinia recondita; dose 100 ppm): 94%; Eff. % (Uromyces appendiculatus; dose 100 ppm): 99%
19 | CC(C)C1Cc2c(NC(=S)c3c(C(F)F)nn(C)c3Br)cccc2C1(C)C (stereo not shown) [Example 102] |  | logP ([1]; method marked [a]): 4.87[a]; Eff. % (Puccinia recondita; dose 100 ppm): 94%; Eff. % (Uromyces appendiculatus; dose 100 ppm): 100%
20 | CCON=C1CCc2c(NC(=O)c3c(C(F)F)nn(C)c3F)cccc21 [Example 27] |  | logP ([1]; method marked [a]): 3.06[a]; Eff. % (Puccinia recondita; dose 500 ppm): 72%
21 | Nc1cccc2c1CCC21CC1 [III-a-4] | 1.37[a] | 
22 | CC1c2c(N)cccc2C(C)(C)C1C (stereo not shown) [III-a-34] | 2.28[a] | 
23 | CC1CC(C(C)C)c2cccc(N)c21 (stereo not shown) [III-a-19] | 2.86[a] | 
24 | CCON=C1CC(C)c2c(N)cccc21.Cl (racemic) [III-a-30] | 2.26[a] | 

Row | SMILES | logP [1, 2] | other results
25 | CCC1(C)CC(C)c2c(NC(=O)c3c(C(F)F)nn(C)c3F)cccc21 (stereo not shown) [Example 116] |  | logP ([1]; method marked [a]): 4.16[a]
26 | CCON=C1CCc2c(Br)cccc21 (single isomer, unassigned) [III-b-23] | 4.9[a] | 
27 | CC1CC2(CC2(Cl)Cl)c2cccc(NC(=O)c3c(C(F)F)nn(C)c3F)c21 (stereo not shown) [Example 1] |  | logP ([1]; method marked [a]): 3.68[a]; Eff. % (Uromyces appendiculatus; dose 500 ppm): 100%
28 | CCC1(C)CC(C)c2c(NC(=O)c3c(C(F)F)nn(C)c3Br)cccc21 (stereo not shown) [Example 117] |  | logP ([1]; method marked [a]): 4.44[a]
29 | CC1CC2(CCCC2)c2cccc(N)c21 (racemic) [III-a-43] | 2.86[a] | 
30 | CCC1(CC)CC(C)c2c(NC(=O)c3c(C(F)F)nn(C)c3F)cccc21 (stereo not shown) [Example 113] |  | logP ([1]; method marked [a]): 4.56[a]
31 | CC(C)C1Cc2c(N)cccc2C1C (stereo not shown) [III-a-11] | 2.34[a] | 
32 | CCCCON=C1CCc2c(Br)cccc21 [III-b-8] | 5.71[a] | 
33 | CC(C)CC1CCc2c(N)cccc21 (racemic) [III-a-22] | 2.64[a] | 
34 | CC(C)C1Cc2cccc(N)c2C1C (mixture of isomers) [III-a-24] | 2.9[a] | 
35 | CON=C1c2cccc(NC(=O)c3c(C(F)F)nn(C)c3Cl)c2CC1(C)C (mixture of isomers) [Example 59] |  | Eff. % (Puccinia recondita; dose 500 ppm): 86%
36 | CC(C)C1Cc2c(N)cccc2C1(C)C (stereo not shown) [III-a-3] | 2.8[a] | 
37 | Cc1ccc(N)c2c1C(C)(C)CC2C (stereo not shown) [III-a-9] | 2.16[a]; | logP [1, 3]: 3.52[b]
38 | CON=C1CC(C)c2c(NC(=O)c3c(C(F)F)nn(C)c3Cl)cccc21 (stereo not shown) [Example 88] |  | logP ([1]; method marked [a]): 2.98[a]; Eff. % (Puccinia recondita; dose 500 ppm): 81%; Eff. % (Uromyces appendiculatus; dose 500 ppm): 100%
39 | CC1CC(C)(C)c2c(C3CC3)ccc(NC(=O)c3c(C(F)F)nn(C)c3Cl)c21 (stereo not shown) [Example 16] |  | logP ([1]; method marked [a]): 4.57[a];; logP ([1]; method marked [b]): 4.57[b]; Eff. % (Puccinia recondita; dose 500 ppm): 94%; Eff. % (Uromyces appendiculatus; dose 500 ppm): 95%
40 | CC1CC(C)(C)c2c(C3CC3)ccc(N)c21 (stereo not shown) [III-a-8] | 2.81[a] | 
41 | CC(C)(C)C1CCc2c(N)cccc21 (racemic) [III-a-35] | 2.4[a] | 
42 | CCC1(C)CCc2c(N)cccc21 (racemic) [III-a-26] | 1.88[a] | 
43 | CC1CC(C)c2c(NC(=O)c3c(C(F)F)nn(C)c3Cl)cccc21 (stereo not shown) [Example 43] |  | Eff. % (Puccinia recondita; dose 500 ppm): 98%; Eff. % (Uromyces appendiculatus; dose 500 ppm): 100%
44 | CC1CC(CC(C)(C)C)c2cccc(N)c21 (stereo not shown) [III-a-36] | 3.83[a] | 
45 | CCC1(CC)CC(C)c2c(NC(=O)c3c(C(F)F)nn(C)c3Br)cccc21 (stereo not shown) [Example 114] |  | logP ([1]; method marked [a]): 4.82[a]
46 | CCCCON=C1CCc2c(N)cccc21.Cl [III-a-13] | 2.86[a] | 
47 | CC1CC(C(C)C)c2cccc(Br)c21 (stereo not shown) [III-b-13] | 5.31[a] | 
48 | CC(C)CC1CCc2c(Br)cccc21 (stereo not shown) [III-b-16] | 6.57[a] | 

Row | SMILES | logP [1, 2] | other results
49 | Cn1nc(C(F)F)c(C(=O)Nc2cccc3c2C(C)(C)CC3)c1F [Example 100] |  | logP ([1]; method marked [a]): 3.31[a]
50 | CCC1Cc2cccc(N)c2C1 (racemic) [III-a-16] | 1.76[a] | 
51 | CON=C1CC(C)c2c(N)cccc21.Cl (racemic) [III-a-31] | 1.76[a] | 
52 | Nc1cccc2c1CC(Cc1ccccc1)C2 (stereo not shown) [III-a-21] | 2.54[a] | 
53 | CCCON=C1CC(C)c2c(N)cccc21.Cl (racemic) [III-a-29] | 2.78[a] | 
54 | CCC1(C)CC(C)c2c(NC(=O)c3c(C(F)F)nn(C)c3Cl)cccc21 (stereo not shown) [Example 115] |  | logP ([1]; method marked [a]): 4.46[a]
55 | CON=C1CCc2c(N)cccc21.Cl [III-a-14] | 1.26[a] | 
56 | CC1CC(C(C)C)c2cccc(N)c21 (stereo not shown) [III-a-18] | 2.73[a] | 
57 | CCC1Cc2c(N)cccc2C1(C)C (racemic) [III-a-40] | 2.47[a] | 
58 | CC1CC2(CC2)c2cccc(Br)c21 (stereo not shown) [III-b-20] | 5.28[a] | 
59 | CCC1Cc2c(Br)cccc2C1(C)C (stereo not shown) [III-b-29] | 6.28[a] | 
60 | CC(C)C1Cc2c(Br)cccc2C1(C)C (stereo not shown) [III-b-3] | 6.7[a] | 
61 | CC1CC2(CCCCC2)c2cccc(N)c21 (stereo not shown) [III-a-44] | 3.35[a] | 
62 | CCC1(CC)Cc2c(N)cccc2C1C (racemic) [III-a-42] | 2.63[a] | 
63 | CC1CC(C)c2c(N)cccc21 (stereo not shown) [III-a-23] | 1.76[a] | 
64 | CCCON=C1CCc2c(N)cccc21.Cl [III-a-12] | 2.26[a] | 
65 | Nc1cccc2c1CC(C1CCCC1)C2 (stereo not shown) [III-a-28] | 2.94[a] | 
66 | CCON=C1CCc2c(N)cccc21.Cl [III-a-15] | 1.75[a] | 
67 | Nc1cccc2c1CC1(CCCC1)C2 [III-a-7] | 2.1[a] | 
68 | CCC1(CC)CC(C)c2c(NC(=O)c3c(C(F)F)nn(C)c3Cl)cccc21 (stereo not shown) [Example 112] |  | logP ([1]; method marked [a]): 4.82[a]
69 | CC1Cc2c(N)cccc2C1(C)C (stereo not shown) [III-a-6] | 1.95[a] | 
70 | CC1CC(C)(C)c2c(I)ccc(N)c21 (stereo not shown) [III-a-10] | 4.1[a] | 
71 | CON=C1CCc2c(NC(=O)c3c(C(F)F)nn(C)c3Cl)cccc21 [Example 25] |  | logP ([1]; method marked [a]): 2.82[a]
